Measurements reported in publication PMC11433764, “A Novel Compound from the Phenylsulfonylpiperazine Class: Evaluation of In Vitro Activity on Luminal Breast Cancer Cells” (Molecules, 2024).
Read-outs that look alike come from different tables or passages of the source.

Experiments:
Assay type in all cases: cell-based
[1] = tested on: tumor cells MCF7, MDA-MB-453 and MDA-MB-231; test: MTT cell viability, tumor cells (stated collectively); details: for IC50: 48 h, MTT, tumor cells stated collectively
Experimental: (§1) Four different breast cells lines were used in this study: MCF-10A (non-tumorigenic), MCF7 (ER+ BC), MDA-MB453 (HER2+ BC) and MDA-MB231 (TNBC). All lineages were obtained from the American Type Culture Collection (ATCC; Manassas, VA, USA) and maintained at a temperature of 37 °C according to the supplier’s recommendations. Only MDA-MB231 cells were not kept in an atmosphere of 5% CO2. MCF-10A was grown in Dulbecco’s Modified Eagle’s Medium (DMEM F12, Gibco, ThermoFisher Scientific, Waltham, MA, USA) supplemented with 20 ng/mL epidermal growth factor (Gibco, ThermoFisher Scientific, Waltham, MA, USA), 0.5 μg/mL hydrocortisone (Sigma-Aldrich, Sigma-Aldrich, St. Louis, MO, USA) and 10 μg/mL insulin (Gibco, ThermoFisher Scientific, Waltham, MA, USA). MCF7 was cultivated in Roswell Park Memorial Institute Medium (RPMI-1640, Gibco, ThermoFisher Scientific, Waltham, MA, USA), MDA-MB453 in IMDM and MDA-MB231 in Leibovitz’s medium (L-15, Gibco, ThermoFisher Scientific, Waltham, MA, USA). All media were supplemented with 10% fetal bovine serum (FBS, Gibco, ThermoFisher Scientific, Waltham, MA, USA) and 50 µg/mL of gentamicin (Cultilab, Campinas, SP, Brazil). The cells were confirmed to be free of mycoplasma and passaged using a 0.25% trypsin-EDTA solution when confluency reached 80–90%.
(§2) Cell viability was determined by spectrophotometric quantification of MTT (3-[4,5-dimethyl-thiazol-2-yl]-2,5-diphenyltetrazolium bromide—Invitrogen. Waltham, MA, USA) reduction to formazan crystals. Cells were seeded at the density of 1 × 10^4 cells/well (MCF-10A, MDA-MB453), 1.5 × 10^4 cells/well (MDA-MB231) and 3 × 10^3 cells/well (MCF7) in 96-well culture dishes and incubated with different concentrations of the compounds (1.25, 2.5, 5, 10, 20, 40, 80 and 160 µM) for 48 h. The medium was than replaced by MTT solution (0.5 mg/mL) and plates were kept at 37 °C for 4 h. After the aspiration of the media, the formazan crystals were diluted with 100 μL of dimethyl-sulfoxide (DMSO)/well and the absorbance at 570 nm was measured using a spectrophotometer (Thermo Plate TP-Reader, Waltham, MA, USA). Cytotoxicity was calculated using the following formula: Cytotoxicity (%) = [absorbance of cells treated with the compounds/absorbance of cells treated with DMSO) × 100]. The IC50 was determined for each compound and was defined as the concentration required to inhibit 50% of cell growth, compared to the control sample (cells treated with DMSO 0.05%).
(§3) Data were presented as the mean ± standard deviation (SD) and analyzed using GraphPad Prism 9.0 software (GraphPad Software Inc., La Jolla, CA, USA). All data were assayed in triplicate. Statistical analysis was performed using one-way ANOVA, Tukey´s HSD post hoc test and Student’s t-test. The IC50 was calculated using non-linear regression and the selectivity index (SI) was calculated by the ratio between the IC50 values corresponding to the non-tumor cell lineage (MCF-10A) and the IC50 values corresponding to the BC cell lines. Statistical significance was accepted at p values < 0.05.

MCF-10A = test: MTT cell viability, non-tumor cell line MCF-10A; details: 48 h; for Cytotoxicity to the MCF-10A cell line (in words): up to 160 μM; for IC50: Homo sapiens, MCF-10A
Experimental: as §1, §2, §3

MDA-MB-453 = test: MTT cell viability, MDA-MB-453; design: key to SI MDA-MB-453: NS: the compound was more active in the non-tumor cell line; details: for IC50: Homo sapiens, MDA-MB-453, 48 h, MTT; for SI MDA-MB-453: IC50 MCF10A / IC50 MDA-MB-453
Experimental: as §1, §2, §3

MDA-MB-231 = test: MTT cell viability, MDA-MB-231; design: key to SI MDA-MB-231: NS: the compound was more active in the non-tumor cell line; details: for IC50: Homo sapiens, MDA-MB-231, 48 h, MTT; for SI MDA-MB-231: IC50 MCF10A / IC50 MDA-MB-231
Experimental: as §1, §2, §3

MCF7 = test: MTT cell viability, MCF7; design: key to SI MCF7: NS: the compound was more active in the non-tumor cell line; details: for IC50: Homo sapiens, MCF7, 48 h, MTT; for SI MCF7: IC50 MCF10A / IC50 MCF7
Experimental: as §1, §2, §3

[2] = 1.25–160 μM, read-out: IC50 MCF-10A
[3] = 1.25–160 μM, read-out: IC50 MDA-MB-453
[4] = 1.25–160 μM, read-out: IC50 MDA-MB-231
[5] = 1.25–160 μM, read-out: IC50 MCF7
[6] = read-out: IC50 MCF-10A (Table S1)
[7] = read-out: IC50 MD-AMB 453 (Table S1)
[8] = read-out: IC50 MD-AMB 231 (Table S1)

Structure (SMILES)	IC50 [1] [µM]	Cytotoxicity to the MCF-10A cell line (in words) (MCF-10A)	IC50 (MCF-10A; [2]) [µM]	IC50 (MDA-MB-453; [3]) [µM]	IC50 (MDA-MB-231; [4]) [µM]	SI MDA-MB-231 (MDA-MB-231)	IC50 (MCF7; [5]) [µM]	SI MDA-MB-453 (MDA-MB-453)	SI MCF7 (MCF7)	Selectivity for tumor cells over MCF-10A (in words) [1]	IC50 (MCF-10A; [6]) [µM]	IC50 (MDA-MB-453; [7]) [µM]	IC50 (MDA-MB-231; [8]) [µM]	IC50 (MCF7; read-out: IC50 MCF7 (Table S1)) [µM]
N#Cc1ccc(C(=O)N2CCN(S(=O)(=O)c3ccc(Cl)cc3)CC2)cc1 [Compound 1]	> 50	not cytotoxic	> 160	> 160	84.9	>1.88	> 160	–	–	–	–	–	–	–
CN(C)CCOc1ccc(C(=O)N2CCN(S(=O)(=O)c3ccc(Cl)cc3)CC2)cc1 [Compound 2]	–	–	88.2	50.5	61.3	1.44	> 160	1.75	NS	–	–	–	–	–
O=C(c1ccc(Cl)nc1)N1CCN(S(=O)(=O)c2ccc(Cl)cc2)CC1 [Compound 4]	> 50	not cytotoxic	> 160	> 160	112	>1.42	> 160	–	–	–	–	–	–	–
CN(C)CCNc1ccc(C(=O)N2CCN(S(=O)(=O)c3ccc(Cl)cc3)CC2)cn1 [Compound 5]	> 50	not cytotoxic	> 160	> 160	> 160	–	82.9	–	>1.93	–	–	–	–	–
CCOC(=O)c1ccc(N2CCN(S(=O)(=O)c3ccc(Cl)cc3)CC2)nc1 [Compound 6]	> 50	not cytotoxic	> 160	> 160	53.1	>3.01	> 160	–	–	–	–	–	–	–
O=S(=O)(c1ccc(Cl)cc1)N1CCN(c2ccc(CO)cn2)CC1 [Compound 7]	–	–	91.2	> 160	107	0.85	> 160	NS	NS	–	–	–	–	–
O=C(c1ccc(N2CCN(S(=O)(=O)c3ccc(Cl)cc3)CC2)nc1)N1CCCC1 [Compound 8]	–	–	86	92.5	135	NS	154	NS	NS	–	–	–	–	–
CN(C)C(=O)c1ccc(N2CCN(S(=O)(=O)c3ccc(Cl)cc3)CC2)nc1 [Compound 9]	–	–	63.9	> 160	> 160	NS	> 160	NS	NS	–	–	–	–	–
CN(C)Cc1ccc(N2CCN(S(=O)(=O)c3ccc(Cl)cc3)CC2)nc1 [Compound 10]	< 50	–	109	48.4	> 160	NS	62	2.25	1.75	–	–	–	–	–
CN(C)Cc1ccc(N2CCN(S(=O)(=O)c3ccc(F)cc3)CC2)nc1 [Compound 11]	–	–	> 160	109	> 160	–	20	>1.47	–	–	–	–	–	–
CN(C)CCOc1ccc(N2CCN(S(=O)(=O)c3ccc(Cl)cc3)CC2)cc1 [Compound 12]	< 50	–	68.3	136	> 160	NS	49.9	NS	1.37	not selective	–	–	–	–
O=S(=O)(c1ccc(Cl)cc1)N1CCNCC1 [Compound 13]	–	–	–	–	–	–	–	–	–	–	> 160	> 160	> 160	> 160
Cc1ccc(S(=O)(=O)N2CCN(c3ccc(C(=O)N(C)C)cn3)CC2)cc1 [Compound 14]	–	–	–	–	–	–	–	–	–	–	> 160	> 160	> 160	> 160
CN(C)C(=O)c1ccc(N2CCN(S(=O)(=O)c3ccccc3)CC2)nc1 [Compound 15]	–	–	–	–	–	–	–	–	–	–	> 160	> 160	> 160	> 160
O=C(O)c1ccc(N2CCN(S(=O)(=O)c3ccc(Cl)cc3)CC2)nc1 [Compound 16]	–	–	–	–	–	–	–	–	–	–	> 160	> 160	> 160	> 160
O=C(c1ccc(N2CCN(S(=O)(=O)c3ccc(Cl)cc3)CC2)nc1)N1CCOCC1 [Compound 17]	–	–	–	–	–	–	–	–	–	–	> 160	> 160	> 160	> 160
CN1CCN(C(=O)c2ccc(N3CCN(S(=O)(=O)c4ccc(Cl)cc4)CC3)nc2)CC1 [Compound 18]	–	–	–	–	–	–	–	–	–	–	> 160	> 160	> 160	> 160
O=S(=O)(c1ccc(F)cc1)N1CCN(c2ccccc2)CC1 [Compound 19]	–	–	–	–	–	–	–	–	–	–	> 160	> 160	> 160	> 160
O=S(=O)(c1ccc(Cl)cc1)N1CCN(c2ccc(O)cc2)CC1 [Compound 20]	–	–	–	–	–	–	–	–	–	–	> 160	> 160	> 160	> 160
